Results published in ChEMBL document CHEMBL4049432, “Structure-Guided Discovery of Potent and Selective Inhibitors of ERK1/2 from a Modestly Active and Promiscuous Chemical Start Point” (J Med Chem, 2017).

Columns and labels:
[1] = Octanol-aqueous phosphate buffer distribution coefficient, log D of the compound at pH 7.4; assay type: physicochemical
[2] = Oral bioavailability in dog; assay type: ADME, organism-based, Canis lupus familiaris; conditions: in vivo
[3] = Volume of distribution at steady state in dog plasma; assay type: ADME, Canis lupus familiaris; conditions: read-out: Vdss
[4] = Oral bioavailability in rat; assay type: ADME, organism-based; conditions: in vivo
[5] = Volume of distribution at steady state in rat plasma; assay type: ADME; conditions: read-out: Vdss

SMILES	logD [1]	other results
COCCN1C(=O)c2cc(-c3nc(Nc4ccnn4C)ncc3C)[nH]c2C[C@@H]1C	2.11	–
Cc1cccc(CN2C(=O)c3cc(-c4nc(Nc5ccnn5C)ncc4C)cn3C[C@H]2C)n1	–	bioavailability [2]: 87%; Vd [3]: 0.9 L/kg; bioavailability [4]: 31%; Vd [5]: 1.3 L/kg
COCCN1CCc2[nH]c(-c3ccnc(Nc4ccnn4C)n3)cc2C1=O	1.4	–
COCCN1C(=O)c2cc(-c3nc(Nc4ccnn4C)ncc3C)cn2C[C@@H]1C	1.6	–
COCCN1C(=O)c2cc(-c3ccnc(Nc4ccnn4C)n3)[nH]c2C[C@H]1C	1.7	–
COCCN1C(=O)c2cc(-c3ccnc(Nc4ccnn4C)n3)[nH]c2C[C@@H]1C	1.8	–
COCCN1CCn2cc(-c3nc(Nc4ccnn4C)ncc3C)cc2C1=O	1.3	–
COCCN1C(=O)c2cc(-c3nc(Nc4ccnn4C)ncc3C)cn2C[C@H]1C	1.7	–
Cn1c(-c2ccnc(NC3CCOCC3)n2)cc2c1CCN(Cc1ccccc1)C2=O	3.3	–
COCCN1C(=O)c2cc(-c3nc(Nc4ccnn4C)ncc3C)[nH]c2C[C@H]1C	2.14	–
CN1CCN(c2ccc(Nc3nccc(-c4cc5c([nH]4)CCNC5=O)n3)cc2)CC1	1.5	–
Cc1cccc(CN2C(=O)c3cc(-c4ccnc(Nc5ccnn5C)n4)cn3CC2C)n1 (single isomer, unassigned; isomer 2)	2.3	–
Cc1cccc(CN2CCn3cc(-c4nc(Nc5ccnn5C)ncc4C)cc3C2=O)n1	2.2	–

More lines, main results first:

logD [1]	SMILES	other results
1.7	COCCN1CCc2c(cc(-c3ccnc(NC4CCOCC4)n3)n2C)C1=O	–
3.5	O=C1c2cc(-c3ccnc(NC4CCOCC4)n3)[nH]c2CCN1[C@H](CO)c1ccc(Cl)c(F)c1	–
1.6	CN1CCc2[nH]c(-c3ccnc(NC4CCOCC4)n3)cc2C1=O	–
1.6	COCCN1CCc2[nH]c(-c3ccnc(NC4CCOCC4)n3)cc2C1=O	–
2.4	Cc1cccc(CN2CCc3[nH]c(-c4ccnc(NC5CCOCC5)n4)cc3C2=O)n1	–
0.75	O=C1NCCn2cc(-c3ccnc(NC4CCOCC4)n3)cc21	–
1.3	Cn1c(-c2ccnc(NC3CCOCC3)n2)cc2c1CCNC2=O	–
3.2	O=C1c2cc(-c3ccnc(NC4CCOCC4)n3)[nH]c2CCN1Cc1ccccc1	–
2.6	O=C1c2cc(-c3ccnc(NC4CCOCC4)n3)[nH]c2CCN1[C@H](CO)c1ccccc1	–
3.6	O=C1c2cc(-c3ccnc(NC4CCOCC4)n3)[nH]c2CCN1[C@H](CO)c1ccc(F)c(Cl)c1	–
1.3	O=C1NCCc2[nH]c(-c3ccnc(NC4CCOCC4)n3)cc21	–
